Values after ≈ are worked out from the molar mass of the structure shown.
Key:
Experiment in all cases: ≥ marks a high value that may be exact or a test limit, other limits are often not marked, values filed in µg/mL are converted to µM
[1] = tested on: Staphylococcus aureus BCRC 10781
[2] = tested on: Vibrio alginolyticus BCRC 12829
[3] = tested on: Streptococcus equinus BCRC 14729
[4] = tested on: Yersinia enterocolitica BCRC 13999
Vibrio parahaemolyticus = tested on: Vibrio parahaemolyticus
Vibrio alginolyticus = tested on: Vibrio alginolyticus
[5] = tested on: Klebsiella oxytoca BCRC 13985
Lactococcus garvieae = tested on: Lactococcus garvieae
[6] = tested on: Listeria monocytogenes BCRC 14845
Streptococcus iniae = tested on: Streptococcus iniae
[7] = tested on: Staphylococcus aureus BCRC 10780
[8] = tested on: Enterobacter cloacae BCRC 10401
Vibrio harveyi = tested on: Vibrio harveyi
[9] = tested on: Escherichia coli BCRC 10675
[10] = tested on: Vibrio anguillarum serotype O1
[11] = tested on: Vibrio parahaemolyticus BCRC 10806
[12] = tested on: Staphylococcus xylosus BCRC 12930
[13] = tested on: Pseudomonas aeruginosa BCRC 10944
[14] = tested on: Klebsiella aerogenes BCRC 10370
[15] = tested on: Escherichia coli ATCC 35218
[16] = tested on: Proteus mirabilis ATCC 25933
Escherichia coli = tested on: Escherichia coli
[17] = tested on: Escherichia coli O6:K15:H31 536
[18] = tested on: Escherichia coli O157:H7 CB6392
[19] = tested on: Escherichia coli 0112 EIEC27
Staphylococcus aureus = tested on: Staphylococcus aureus
[20] = tested on: Escherichia coli O157:H7 734/94
[21] = tested on: Enterococcus faecalis ATCC 29212
[22] = tested on: Escherichia coli AX-109-2-3
[23] = tested on: Escherichia coli AX-128-3-3
[24] = tested on: Staphylococcus epidermidis RP62A
[25] = tested on: Escherichia coli O157:H7 30328
[26] = tested on: Escherichia coli AX-100-3-1
[27] = tested on: Enterobacter cloacae NHTCC 53001
[28] = tested on: Escherichia coli ATCC 25922
[29] = tested on: Staphylococcus aureus NCTC 8325
[30] = tested on: Escherichia coli 0164 EIEC6
[31] = tested on: Escherichia coli O26:H11 3
Candida albicans = tested on: Candida albicans
[32] = tested on: Escherichia coli 0152 EIEC1
Escherichia coli U7794 = tested on: Escherichia coli U7794
[33] = tested on: Escherichia coli 0112 EIEC26
Escherichia coli U7103 = tested on: Escherichia coli U7103
[34] = tested on: Escherichia coli AX-054-1-3
[35] = tested on: Pseudomonas aeruginosa ATCC 27853
[36] = tested on: Escherichia coli O26:H- CB6418
[37] = tested on: Escherichia coli O157:H7 282
[38] = tested on: Klebsiella pneumoniae KK3 9904
[39] = tested on: Escherichia coli 0143 EIEC7
[40] = tested on: Bacillus subtilis ATCC 6633
[41] = tested on: Staphylococcus aureus ATCC 6538
[42] = tested on: Staphylococcus epidermidis ATCC 12228
[43] = tested on: Pseudomonas aeruginosa ATCC 9027
[44] = tested on: Escherichia coli ATCC 2592
[45] = tested on: Shigella flexneri ATCC 203
[46] = tested on: Corynebacterium diphtheriae ATCC 8024
[47] = tested on: Candida albicans ATCC 36232
[48] = tested on: Micrococcus luteus ATCC 9341

CC[C@H](C)[C@H](NC(=O)[C@@H](NC(=O)[C@H](Cc1ccccc1)NC(=O)[C@H](Cc1ccc(O)cc1)NC(=O)[C@H](CCCCN)NC(=O)[C@H](CCCCN)NC(=O)[C@H](CC(C)C)NC(=O)[C@H](C)NC(=O)[C@H](CC(N)=O)NC(=O)[C@H](C)NC(=O)CN)[C@@H](C)O)C(=O)N[C@@H](CC(C)C)C(=O)N[C@@H](CCCCN)C(=O)N[C@@H](CCCCN)C(=O)N[C@@H](Cc1ccccc1)C(=O)N[C@@H](Cc1ccccc1)C(=O)N[C@@H](CCCCN)C(=O)N[C@@H](CC(C)C)C(=O)N[C@@H](C)C(=O)N[C@@H](Cc1c[nH]c2ccccc12)C(=O)O [GANALKKYFTILKKFFKLAW]
MIC [1]: 6.7 µM (≈ 16 µg/mL) | MIC [2]: 26.8 µM (≈ 64 µg/mL) | MIC [3]: ≥ 53.6 µM | MIC [4]: 13.4 µM (≈ 32 µg/mL) | MIC (Vibrio parahaemolyticus): 6.7 µM (≈ 16 µg/mL) | MIC (Vibrio alginolyticus): 3.35 µM (≈ 8 µg/mL) | MIC [5]: 26.8 µM (≈ 64 µg/mL) | MIC (Lactococcus garvieae): 26.8 µM (≈ 64 µg/mL) | MIC [6]: 6.7 µM (≈ 16 µg/mL) | MIC (Streptococcus iniae): 26.8 µM (≈ 64 µg/mL) | MIC [7]: 6.7 µM (≈ 16 µg/mL) | MIC [8]: 3.35 µM (≈ 8 µg/mL) | MIC (Vibrio harveyi): 1.68 µM (≈ 4 µg/mL) | MIC [9]: 3.35 µM (≈ 8 µg/mL) | MIC [10]: 6.7 µM (≈ 16 µg/mL) | MIC [11]: 3.35 µM (≈ 8 µg/mL) | MIC [12]: 6.7 µM (≈ 16 µg/mL) | MIC [13]: 6.7 µM (≈ 16 µg/mL) | MIC [14]: 6.7 µM (≈ 16 µg/mL)

CC[C@H](C)[C@H](NC(=O)[C@H](CCCCN)NC(=O)[C@H](CS)NC(=O)[C@H](C)NC(=O)[C@@H](NC(=O)[C@H](Cc1ccccc1)NC(=O)CNC(=O)[C@H](CC(C)C)NC(=O)CNC(=O)[C@@H](NC(=O)[C@H](CCCCN)NC(=O)CNC(=O)[C@H](CC(C)C)NC(=O)[C@H](CCCCN)NC(=O)[C@H](CCCCN)NC(=O)[C@H](CC(C)C)NC(=O)[C@@H](NC(=O)[C@H](CO)NC(=O)[C@H](CC(C)C)NC(=O)[C@H](CCSC)NC(=O)[C@@H](N)CO)C(C)C)C(C)C)C(C)C)C(=O)N[C@@H](CC(N)=O)C(=O)N[C@@H](CCCCN)C(=O)N[C@@H](CCC(N)=O)C(=O)N[C@@H](CS)C(=O)O [SMLSVLKKLGKVGLGFVACKINKQC]
MIC [15]: 5 µM (≈ 13.3 µg/mL) | MIC [16]: ≥ 100 µM | MIC (Escherichia coli): 5 µM (≈ 13.3 µg/mL) | MIC [17]: 2.5 µM (≈ 6.66 µg/mL) | MIC [18]: 5 µM (≈ 13.3 µg/mL) | MIC [19]: 5 µM (≈ 13.3 µg/mL) | MIC (Staphylococcus aureus): 10 µM (≈ 26.7 µg/mL) | MIC [20]: 5 µM (≈ 13.3 µg/mL) | MIC [21]: 20 µM (≈ 53.3 µg/mL) | MIC [22]: 5 µM (≈ 13.3 µg/mL) | MIC [23]: 5 µM (≈ 13.3 µg/mL) | MIC [24]: 10 µM (≈ 26.7 µg/mL) | MIC [25]: 5 µM (≈ 13.3 µg/mL) | MIC [26]: 5 µM (≈ 13.3 µg/mL) | MIC [27]: 10 µM (≈ 26.7 µg/mL) | MIC [28]: 10 µM (≈ 26.7 µg/mL) | MIC [29]: 10 µM (≈ 26.7 µg/mL) | MIC [30]: 5 µM (≈ 13.3 µg/mL) | MIC [31]: 2.5 µM (≈ 6.66 µg/mL) | MIC (Candida albicans): 20 µM (≈ 53.3 µg/mL) | MIC [32]: 5 µM (≈ 13.3 µg/mL) | MIC (Escherichia coli U7794): 5 µM (≈ 13.3 µg/mL) | MIC [33]: 5 µM (≈ 13.3 µg/mL) | MIC (Escherichia coli U7103): 2.5 µM (≈ 6.66 µg/mL) | MIC [34]: 10 µM (≈ 26.7 µg/mL) | MIC [35]: 10 µM (≈ 26.7 µg/mL) | MIC [36]: 5 µM (≈ 13.3 µg/mL) | MIC [37]: 2.5 µM (≈ 6.66 µg/mL) | MIC [38]: 10 µM (≈ 26.7 µg/mL) | MIC [39]: 5 µM (≈ 13.3 µg/mL)

CC(C)[C@H](NC(=O)[C@H](CS)NC(=O)[C@@H](NC(=O)[C@H](CCCN=C(N)N)NC(=O)[C@H](CCCCN)NC(=O)CNC(=O)[C@H](CC(N)=O)NC(=O)[C@H](CS)NC(=O)[C@@H](N)Cc1ccc(O)cc1)C(C)C)C(=O)N[C@@H](CS)C(=O)N[C@@H](CCCN=C(N)N)C(N)=O [YCNGKRVCVCR]
MIC [40]: 11.5 µM (≈ 15 µg/mL) | MIC (Staphylococcus aureus): > 76.9 µM | MIC [41]: 23.1 µM (≈ 30 µg/mL) | MIC [42]: 11.5 µM (≈ 15 µg/mL) | MIC [43]: 38.4 µM (≈ 50 µg/mL) | MIC [44]: 11.5 µM (≈ 15 µg/mL) | MIC [45]: 11.5 µM (≈ 15 µg/mL) | MIC [46]: 5.77 µM (≈ 7.49 µg/mL) | MIC [47]: 11.5 µM (≈ 15 µg/mL) | MIC [48]: 23.1 µM (≈ 30 µg/mL)

Source: DBAASP
